From ChEMBL document CHEMBL4229434, “Design, synthesis, and evaluation of novel l-phenylglycine derivatives as potential PPARγ lead compounds” (Bioorg Med Chem, 2018) come the findings set out here.

The target of assay [1] is T1, Peroxisome proliferator-activated receptor gamma (Homo sapiens) (UniProt P37231).
T1 sequence (whole entry): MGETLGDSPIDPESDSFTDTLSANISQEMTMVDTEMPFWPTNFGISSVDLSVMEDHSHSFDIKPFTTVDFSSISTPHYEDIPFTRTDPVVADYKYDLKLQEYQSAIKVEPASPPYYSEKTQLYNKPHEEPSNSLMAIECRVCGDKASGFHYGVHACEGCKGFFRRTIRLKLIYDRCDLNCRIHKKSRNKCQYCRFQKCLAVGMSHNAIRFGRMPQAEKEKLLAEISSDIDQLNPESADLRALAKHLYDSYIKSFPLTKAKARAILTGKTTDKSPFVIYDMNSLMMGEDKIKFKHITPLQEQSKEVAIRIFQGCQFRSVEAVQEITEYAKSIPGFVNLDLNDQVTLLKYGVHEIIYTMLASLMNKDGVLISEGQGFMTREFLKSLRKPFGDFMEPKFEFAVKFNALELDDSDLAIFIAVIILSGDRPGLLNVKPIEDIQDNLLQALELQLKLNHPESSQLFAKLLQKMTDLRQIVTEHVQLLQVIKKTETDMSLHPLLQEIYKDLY
The assay is described as follows: Agonist activity at PPARgamma in human HepG2 cells assessed as activation of PPRE at 10 ug/ml incubated for 24 hrs by dual luciferase reporter gene assay relative to pioglitazone. The class given is cell-based.

Assay [2] has as its target T1, Peroxisome proliferator-activated receptor gamma (Homo sapiens). The assay is described as follows: Agonist activity at PPARgamma in human HepG2 cells assessed as activation of PPRE at 10 ug/ml incubated for 24 hrs by dual luciferase reporter gene assay relative to control. Type of assay: cell-based. (In general: In a reporter assay the amount or activity of a reporter protein is the signal.)

In assay [3] the target is Dipeptidyl peptidase 4 (Homo sapiens) (UniProt P27487). The assay can be described thus: Inhibition of recombinant human C-terminal His-tagged DPP-4 (29 to 766 residues) expressed in Sf9 insect cells at 10 ug/ml using dipeptidyl peptidase […] as substrate incubated for 10 mins followed by substrate addition measured after 40 mins by fluorescence assay relative to control.
Dipeptidyl peptidase 4 (Homo sapiens), sequence (P27487 whole entry, looked up, the tested form may be a part): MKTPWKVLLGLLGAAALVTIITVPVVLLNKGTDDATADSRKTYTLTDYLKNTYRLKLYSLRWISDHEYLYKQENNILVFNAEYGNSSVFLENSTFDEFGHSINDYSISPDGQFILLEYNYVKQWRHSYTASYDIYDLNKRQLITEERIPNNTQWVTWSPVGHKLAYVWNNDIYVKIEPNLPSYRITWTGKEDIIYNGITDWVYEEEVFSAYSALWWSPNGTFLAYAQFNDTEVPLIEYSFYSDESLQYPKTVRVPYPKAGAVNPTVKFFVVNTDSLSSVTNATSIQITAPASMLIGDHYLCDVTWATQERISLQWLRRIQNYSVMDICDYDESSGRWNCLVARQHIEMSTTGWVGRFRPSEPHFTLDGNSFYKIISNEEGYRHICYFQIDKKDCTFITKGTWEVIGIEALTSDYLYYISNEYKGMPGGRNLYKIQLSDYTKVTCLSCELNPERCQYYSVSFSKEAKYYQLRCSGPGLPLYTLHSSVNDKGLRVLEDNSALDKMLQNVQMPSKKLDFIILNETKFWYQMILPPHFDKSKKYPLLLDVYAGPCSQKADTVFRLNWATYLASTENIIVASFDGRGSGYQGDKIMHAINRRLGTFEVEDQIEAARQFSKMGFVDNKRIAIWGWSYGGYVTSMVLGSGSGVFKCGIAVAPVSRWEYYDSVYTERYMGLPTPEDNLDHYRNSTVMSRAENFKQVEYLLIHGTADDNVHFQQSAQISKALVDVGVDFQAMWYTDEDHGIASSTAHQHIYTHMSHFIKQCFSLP

For assay [4], the species on record is Rattus norvegicus. The assay can be described thus: Inhibition of rat small intestine alpha-glucosidase at 10 ug/ml using maltose/glucose as substrate incubated for 10 mins followed by substrate addition measured after 10 mins relative to control.
Assay [5] is filed under the species Rattus norvegicus. The assay can be described thus: Inhibition of rat small intestine alpha-glucosidase at 3.74 umol/L using maltose/glucose as substrate incubated for 10 mins followed by substrate addition measured after 10 mins relative to control.
The target of assay [6] is T2, Peroxisome proliferator-activated receptor gamma (Homo sapiens, UniProt P37231).
T2 sequence (P37231 whole entry): T1 sequence (whole entry)
The assay can be described thus: Agonist activity at PPARgamma in human HepG2 cells assessed as activation of PPRE incubated for 24 hrs by dual luciferase reporter gene assay. The class given is cell-based.

In assay [7] the target is T1, Peroxisome proliferator-activated receptor gamma (Homo sapiens). The assay is described as follows: Agonist activity at PPARgamma in human HepG2 cells assessed as activation of PPRE at 23.05 umol/L incubated for 24 hrs by dual luciferase reporter gene assay relative to control. Type of assay: cell-based.

Several values for one entry are separate records, joined by “and”; a condition that tells them apart may be missing. Equal entries are not always repeated.

`COC(=O)[C@@H](NC(=O)OCc1ccccc1)c1cccc(NC(=O)Cn2cnc3ccccc32)c1`: the Activity in assay [1] came out at 4.52%; in assay [2], 3.93%. The inhibition (in general, the change of the read-out against control, counted positive when it falls) was -0.31% in assay [3] and 2.91% in assay [4].

With `CCCC(=O)Nc1cccc([C@H](NC(=O)OCc2ccccc2)C(=O)OC)c1`, the Activity in assay [1] was 11.2%; in assay [2], 12%.

Consider `COC(=O)[C@@H](NC(=O)OCc1ccccc1)c1cccc(NC(=O)CNc2ccc(S(=O)(=O)Nc3cc(C)on3)cc2)c1`, for which the Activity turned out to be 27.9% in assay [1] and 18.9% in assay [2]. The results for the inhibition in assay [3] and in assay [4] were 5.87% and 11.8%, respectively.

As for `CCCOC(=O)[C@@H](NC(=O)OCc1ccccc1)c1cccc(NC(=O)CCl)c1`, the Activity in assay [1] and in assay [2] was -17.1% in each case.

Consider `COC(=O)[C@@H](NC(=O)OCc1ccccc1)c1cccc(NC(=O)Cn2cnnn2)c1`, for which the figures for the Activity in assay [1] and in assay [2] were 14.9% and 14.4%, respectively.

For the compound `COC(=O)[C@@H](NC(=O)OCc1ccccc1)c1cccc(NC(=O)CCCl)c1`, the Activity in assay [1] was -3.5%; in assay [2] it was -3.55%.

For `O=C(CSc1nc2ccccc2[nH]1)Nc1cccc([C@H](NC(=O)OCc2ccccc2)C(=O)O)c1`, the Activity was determined as 39.4% in assay [1] and 32.9% in assay [2]. For the same compound, the inhibition in assay [3] is -7.54%; in assay [4], 12.6%.

As to `CNC(=O)[C@@H](NC(=O)OCc1ccccc1)c1cccc(NC(=O)CCl)c1`, the Activity was -17.4% in assay [1] and -18.8% in assay [2].

With `CCOC(=O)[C@@H](NC(=O)OCc1ccccc1)c1cccc(NC(=O)CCl)c1`, the Activity in assay [1] is -23.9%; in assay [2] it was -24.8%.

With `COC(=O)[C@@H](NC(=O)OCc1ccccc1)c1cccc(NC(C)=O)c1`, the Activity is 21.6% in assay [1] and 24.9% in assay [2].

Regarding `CCNC(=O)[C@@H](NC(=O)OCc1ccccc1)c1cccc(NC(=O)CCl)c1`, the Activity was -19.3% in assay [1] and -20.1% in assay [2].

For the compound `O=C(CCl)Nc1cccc([C@H](NC(=O)OCc2ccccc2)C(=O)O)c1`, the Activity was 52.8% and 49.1% in assay [1]; 53.5% in assay [2]. The inhibition in assay [4] worked out at 17.7%.

On to `COC(=O)[C@@H](NC(=O)OCc1ccccc1)c1cccc(NC(=O)CN2C(=O)c3ccccc3C2=O)c1`, for which the Activity was found to be 14.6% in assay [1] and 11.9% in assay [2]. Besides, the figures for the inhibition in assay [3] and in assay [4] were 2.17% and 17.5%, respectively.

On to `COC(=O)[C@@H](NC(=O)OCc1ccccc1)c1cccc(NC(=O)Cn2nc(C)cc2C)c1`, for which the Activity in assay [1] turned out to be 1.49%; in assay [2], 1.36%.

`COCC(=O)Nc1cccc([C@H](NC(=O)OCc2ccccc2)C(=O)OC)c1`: the Activity was -16.1% in assay [1] and -17.1% in assay [2].

In the case of `COC(=O)[C@@H](NC(=O)OCc1ccccc1)c1cccc(NC(=O)Cn2nnnc2C)c1`, the Activity in assay [1] worked out at 15.4%; in assay [2], 14.4%.

Turning to `Cc1cc(NS(=O)(=O)c2ccc(NCC(=O)Nc3cccc([C@H](NC(=O)OCc4ccccc4)C(=O)O)c3)cc2)no1`, the results for the Activity in assay [1] and in assay [2] were 58.8% and 40.6%, respectively. Besides, the inhibition in assay [3] turned out to be 11.1%; in assay [4], 8.89%.

Consider `OCC(CO)N[C@H]1C[C@](O)(CO)[C@@H](O)[C@H](O)[C@H]1O`, for which the inhibition in assay [5] turned out to be 104%.

With `O=C(CCl)Nc1cccc([C@H](NC(=O)OCc2ccccc2)C(=O)NO)c1`, the Activity in assay [1] was -4.96%; in assay [2], -5.33%.

On to `CCC(=O)Nc1cccc([C@H](NC(=O)OCc2ccccc2)C(=O)OC)c1`, for which the Activity in assay [1] was 16.5%; in assay [2] it was 18.3%.

With `CN(CCO)C(=O)[C@@H](NC(=O)OCc1ccccc1)c1cccc(NC(=O)CCl)c1`, the Activity was found to be 124% in assay [1], 120% in assay [2] and 208% in assay [7]. Further, the EC50 (usually the concentration giving half of the maximal effect) in assay [6] was determined as 8.97 µM.

For the compound `O=C(CN1C(=O)c2ccccc2C1=O)Nc1cccc([C@H](NC(=O)OCc2ccccc2)C(=O)O)c1`, the Activity in assay [1] came out at 47.4%; in assay [2], 39.9%. The inhibition in assay [4] was determined as 17.8%.

For the compound `CCCCOC(=O)[C@@H](NC(=O)OCc1ccccc1)c1cccc(NC(=O)CCl)c1`, the Activity in assay [1] is -5.58%; in assay [2], -5.01%.

For the compound `COC(=O)[C@@H](NC(=O)OCc1ccccc1)c1cccc(NC(=O)CCl)c1`, the Activity in assay [1] was 100%; in assay [2], 105 to 179%. The EC50 in assay [6] is 22.4 µM. Besides, the inhibition worked out at 16.1% in assay [3] and 14.6% in assay [4].

In the case of `COC(=O)[C@@H](NC(=O)OCc1ccccc1)c1cccc(NC(=O)CCCCl)c1`, the figures for the Activity in assay [1] and in assay [2] were 11.8% and 11.6%, respectively.

For `CC(C)(C)OC(=O)N1CCN(CC(=O)Nc2cccc([C@H](NC(=O)OCc3ccccc3)C(=O)O)c2)CC1`, the results for the Activity in assay [1] and in assay [2] were 27.5% and 21.4%, respectively. For the same compound, the inhibition was found to be 5.26% in assay [3] and 13.7% in assay [4].

As for `COC(=O)[C@@H](NC(=O)OCc1ccccc1)c1cccc(NC(=O)CSc2nc3ccccc3[nH]2)c1`, the Activity was -9.41% in assay [1] and 7.66% in assay [2]. Also, the results for the inhibition in assay [3] and in assay [4] were 8.99% and 9.26%, respectively.

As for `COC(=O)[C@@H](NC(=O)OCc1ccccc1)c1cccc(NC(=O)CN2CCN(C(=O)OC(C)(C)C)CC2)c1`, the results for the Activity in assay [1] and in assay [2] were -10.9% and -8.27%, respectively. In addition, the figures for the inhibition in assay [3] and in assay [4] were -6.12% and 15.5%, respectively.

Take `O=C(Cn1cnc2ccccc21)Nc1cccc([C@H](NC(=O)OCc2ccccc2)C(=O)O)c1`: the Activity in assay [1] was determined as 4.3%; in assay [2] it was 3.85%. Further, the results for the inhibition in assay [3] and in assay [4] were -0.74% and 0.99%, respectively.

With `COC(=O)[C@@H](NC(=O)OCc1ccccc1)c1cccc(NC(=O)Cn2nnnc2SC)c1`, the values for the Activity in assay [1] and in assay [2] were 22.4% and 19.5%, respectively.
